Reference: paper PMC3460366, “Synthesis and Antibacterial Evaluation of a New Series of N-Alkyl-2-alkynyl/(E)-alkenyl-4-(1H)-quinolones” (Molecules, 2012)
Converted amounts (≈) assume the structure as drawn. “And” between values parts separate entries of the source, which are not always exact repeats. Equal values may be shown once. Read-outs that look alike come from different tables or passages of the source.

Legend:
[1] = target: T1, M. tuberculosis MurE ligase (Mycobacterium tuberculosis, UniProt P9WJL3); parameters: method as in PMID 21622974; settings: positive control; read-out: IC50 Mtb MurE; cited from earlier work
T1 construct: made in house; host or cells: E. coli BL21(DE3)pLysS
T1 sequence (P9WJL3 whole entry): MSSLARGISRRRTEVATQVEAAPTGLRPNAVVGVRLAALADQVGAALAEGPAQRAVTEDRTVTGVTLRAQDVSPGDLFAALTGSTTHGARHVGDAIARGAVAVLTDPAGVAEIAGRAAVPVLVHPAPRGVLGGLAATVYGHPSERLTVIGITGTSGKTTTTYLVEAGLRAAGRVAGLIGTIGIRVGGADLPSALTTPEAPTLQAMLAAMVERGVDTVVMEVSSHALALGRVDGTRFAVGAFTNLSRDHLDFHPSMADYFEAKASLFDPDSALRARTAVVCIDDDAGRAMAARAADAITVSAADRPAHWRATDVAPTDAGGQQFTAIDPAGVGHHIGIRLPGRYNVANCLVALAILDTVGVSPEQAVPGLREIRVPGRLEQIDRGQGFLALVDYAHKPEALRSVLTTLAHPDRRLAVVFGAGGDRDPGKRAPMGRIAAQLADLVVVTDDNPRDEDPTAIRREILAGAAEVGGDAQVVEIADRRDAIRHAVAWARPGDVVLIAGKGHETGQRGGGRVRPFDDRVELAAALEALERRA

M. fortuitum (ATCC 6841) = assay: Broth dilution MIC against M. fortuitum; type: cell-based; settings: Mycolicibacterium fortuitum, ATCC6841, 72 h
EMRSA-15 and -16 = assay: Broth dilution MIC against epidemic MRSA strains; type: cell-based, S. aureus; settings: Staphylococcus aureus, range over both strains and the compounds named
S. aureus EMRSA-16 = assay: Broth dilution MIC against EMRSA-16; type: cell-based; settings: Staphylococcus aureus, EMRSA16, 18 h
[2] = test system: M. smegmatis (ATCC 14468); assay: Microtiter broth dilution MIC against M. smegmatis (ATCC 14468); type: cell-based; settings: Mycolicibacterium smegmatis, ATCC14468, 72 h, 37 °C, MTT
[3] = test system: M. bovis BCG (ATCC 35734); assay: microbe, parasite or virus in culture; type: cell-based; settings: Mycobacterium tuberculosis variant bovis BCG, 336 h, read-out: MIC M. bovis BCG
[4] = target: T1, M. tuberculosis MurE ligase; assay: M. tuberculosis MurE inhibition assay (phosphate colorimetric detection); type: biochemical; settings: tested at 1000, 300, 100 and 30 µM; IC50 from plot of percent inhibition vs. concentration; read-out: IC50 Mtb MurE
[5] = test system: human diploid embryonic lung cell line MRC-5; assay: XTT cytotoxicity assay on MRC-5 cells; type: cell-based; settings: for Metabolic active MRC-5 cells (%): XTT; for toxicity to MRC-5 cell line (in words): at / up to 100 µM
Method: In order to assess the cytotoxicity of these novel quinolone derivatives, the effect on the viability of a human lung fibroblast cell line MRC-5, was measured using XTT proliferation assay. […] In addition, the position of the triple bond in the side chain seems to have a significant influence on cytotoxcity which is increased in compounds with a triple bond more distant to the quinolone nucleus. This can be concluded by comparing results of 8l, 8n, 8p, and 8r having similar antimycobacterial activity on M. smegmatis but different cytotoxcity depending on triple bond position.
The cytotoxic activity of the synthetic compounds was determined by means of an XTT Cell Proliferation Kit II (Roche Diagnostics, Mannheim, Germany) using the human diploid embryonic lung cell line MRC-5 [11]. The quinolone derivatives were tested at concentrations of 100, 60, 30 and 10 µM in triplicate and the percentage of viable cells at each concentration was determined by comparing with the control.

S. aureus EMRSA-15 = assay: Broth dilution MIC against EMRSA-15; type: cell-based; settings: Staphylococcus aureus, EMRSA15, 18 h
M. phlei (ATCC 11758) = assay: Broth dilution MIC against M. phlei; type: cell-based; settings: Mycolicibacterium phlei, ATCC11758, 72 h
M. smegmatis mc^2155 = assay: Broth dilution MIC against M. smegmatis mc^2155; type: cell-based; settings: Mycolicibacterium smegmatis, 72 h

Row | Compound | IC50 [1] | MIC (M. fortuitum (ATCC 6841)) | MIC (EMRSA-15 and -16) | MIC (S. aureus EMRSA-16) | MIC [2] | MIC [3] | IC50 [4] | Metabolic active MRC-5 cells (%) ([5]; 10 µM) | Metabolic active MRC-5 cells (%) ([5]; 30 µM) | Metabolic active MRC-5 cells (%) ([5]; 60 µM) | Metabolic active MRC-5 cells (%) ([5]; 100 µM) | MIC (S. aureus EMRSA-15) | MIC (M. phlei (ATCC 11758)) | MIC (M. smegmatis mc^2155) | toxicity to MRC-5 cell line (in words) [5] | melting point
1 | CCCCCCCC/C=C\CCCCc1cc(=O)c2ccccc2n1C [1-Methyl-2-[(5Z)-tetradecenyl]-4(1H)-quinolone] | 36 µM | – | – | – | – | – | – | – | – | – | – | – | – | – | – | –
2 | CCCCCCCCC#CCCc1cc(=O)c2ccccc2n1CCC [Compound 8l, 1-(n-Propyl)-2-(3'-dodecynyl)-4(1H)-quinolone] | – | 2 µg/mL and 5.7 µM | 2 µg/mL to 8 µg/mL and 5.5 µM to 22.8 µM | 8 µg/mL and 22.8 µM | 1 µg/mL and 2.8 µM | 25 µg/mL and 71.2 µM | 263 µM | 100 ± 0.31% | 99.1 ± 2.32% | 69.1 ± 8.04% | 9.0 ± 6.85% | 2 µg/mL and 5.7 µM | 4 µg/mL and 11.4 µM | – | – | –
3 | CCCCCCCCC#CCCc1cc(=O)c2ccccc2n1CCCC [Compound 8m, 1-(n-Butyl)-2-(3'-dodecynyl)-4(1H)-quinolone] | – | 2 µg/mL and 5.5 µM | 2 µg/mL to 8 µg/mL and 5.5 µM to 22.8 µM | 4 µg/mL and 10.9 µM | 2 µg/mL and 5.5 µM | 25 µg/mL and 68.5 µM | 235 µM | 94.9 ± 3.18% | 89.7 ± 2.46% | 67.5 ± 3.19% | 0.4 ± 0.02% | 2 µg/mL and 5.5 µM | 4 µg/mL and 10.9 µM | 2 µg/mL and 5.5 µM | – | –
4 | CCCCCCCCCCC#Cc1cc(=O)c2ccccc2n1C [Compound 8n, 1-Methyl-2-(1'-dodecynyl)-4(1H)-quinolone] | – | 0.5 µg/mL and 1.5 µM | 2 µg/mL to 8 µg/mL and 5.5 µM to 22.8 µM | 4 µg/mL and 12.4 µM | 0.5 µg/mL (≈ 1.55 µM) | 25 µg/mL and 77.4 µM | 251 µM | 101 ± 0.85% | 100 ± 0.72% | 100 ± 0.81% | 100 ± 0.82% | 2 µg/mL and 6.2 µM | 1 µg/mL and 3.1 µM | 1 µg/mL and 3.1 µM | devoid of toxicity | –
5 | CCCCCCCCCCC#CCCc1cc(=O)c2ccccc2n1C [Compound 8o, 1-Methyl-2-(3'-tetradecynyl)-4(1H)-quinolone] | – | 2 µg/mL and 5.7 µM | – | 8 µg/mL and 22.8 µM | 2 µg/mL and 5.7 µM | 25 µg/mL and 71.2 µM | 774 µM | 100 ± 0.73% | 97.9 ± 0.88% | 95.8 ± 2.54% | 90.7 ± 3.48% | 8 µg/mL and 22.8 µM | 2 µg/mL and 5.7 µM | 1 µg/mL and 2.8 µM | – | 43 to 45 °C
6 | CCCCCCCCCCC#CCCc1cc(=O)c2ccccc2n1CCC [Compound 8q, 1-(n-Propyl)-2-(3'-tetradecynyl)-4(1H)-quinolone] | – | 2 µg/mL and 5.3 µM | – | 128 µg/mL and 338 µM | 1 µg/mL and 2.6 µM | 25 µg/mL and 66 µM | 200 µM | 92.7 ± 4.62% | 67.9 ± 2.65% | 19.8 ± 9.85% | 0.2 ± 0.09% | 2 µg/mL and 5.3 µM | 2 µg/mL and 5.3 µM | 1 µg/mL and 2.6 µM | – | –
7 | CCCCCCCCCCCCC#Cc1cc(=O)c2ccccc2n1C [Compound 8r, 1-Methyl-2-(1′-tetradecynyl)-4(1H)-quinolone] | – | 0.5 µg/mL and 1.5 µM | – | 128 µg/mL and 365 µM | 0.5 µg/mL (≈ 1.42 µM) | 25 µg/mL and 71.2 µM | 631 µM | 99.7 ± 2.03% | 98.1 ± 1.65% | 97.1 ± 1.69% | 95.7 ± 1.14% | 16 µg/mL and 45.6 µM | 2 µg/mL and 5.7 µM | 1 µg/mL and 2.8 µM | devoid of toxicity | 41 to 43 °C
